pIC50: −log10 of the molar value.
How the values were obtained:
Renin [1] = target: T1, Renin (Homo sapiens, UniProt P00797); assay: In vitro inhibition of purified human renin at PH 6.0
T1 sequence (P00797 whole entry): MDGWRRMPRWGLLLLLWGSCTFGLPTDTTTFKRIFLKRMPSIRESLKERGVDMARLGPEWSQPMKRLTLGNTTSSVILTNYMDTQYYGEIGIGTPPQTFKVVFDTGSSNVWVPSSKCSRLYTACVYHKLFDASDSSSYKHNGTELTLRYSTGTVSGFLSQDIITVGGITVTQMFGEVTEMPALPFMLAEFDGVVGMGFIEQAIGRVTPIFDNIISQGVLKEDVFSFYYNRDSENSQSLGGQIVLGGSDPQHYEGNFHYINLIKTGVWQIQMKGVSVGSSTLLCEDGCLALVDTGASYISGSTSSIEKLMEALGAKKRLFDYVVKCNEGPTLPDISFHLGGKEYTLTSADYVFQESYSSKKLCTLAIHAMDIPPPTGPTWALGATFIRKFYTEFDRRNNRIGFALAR

Renin [2] = target: T1, Renin; assay: In vitro inhibition of human plasma renin at PH 7.4

| pIC50 (Renin [1]) | pIC50 (Renin [2]) | Structure (SMILES) |
| --- | --- | --- |
| 8.14 | 7.57 | C=CS(=O)(=O)[C@@H]1[C@@H](C(=O)N[C@@H](Cc2cscn2)C(=O)N[C@@H](CC2CCCCC2)[C@@H](O)[C@@H](O)CC(C)C)[C@@H]1c1ccccc1 |
| 8.72 | 6.80 | CCCC[C@H](NC(=O)[C@H]1[C@H](c2ccccc2)[C@@H]1S(=O)(=O)C(C)C)C(=O)N[C@@H](CC1CCCCC1)[C@@H](O)[C@@H](O)CC(C)C |
| 8.60 | 7.82 | CC(C)C[C@H](O)[C@H](O)[C@H](CC1CCCCC1)NC(=O)[C@H](Cn1ccnc1)NC(=O)[C@H]1[C@H](c2ccccc2)[C@@H]1S(=O)(=O)C(C)C |
| 9.43 | 7.89 | CCCC[C@H](NC(=O)[C@@H]1[C@@H](c2ccccc2)[C@H]1S(=O)(=O)C(C)C)C(=O)N[C@@H](CC1CCCCC1)[C@@H](O)[C@@H](O)CC(C)C |
| 8.92 | 7.54 | CC(C)C[C@H](O)[C@H](O)[C@H](CC1CCCCC1)NC(=O)[C@H](Cc1cscn1)NC(=O)[C@@H]1[C@@H](c2ccccc2)[C@H]1S(=O)(=O)c1ccccc1 |
| 7.85 |  | CC(C)C[C@H](O)[C@H](O)[C@H](CC1CCCCC1)NC(=O)[C@H](Cc1cscn1)NC(=O)[C@H]1[C@H](C2CCCCC2)[C@@H]1S(=O)(=O)C(C)C |
| 9.11 | 7.74 | CO[C@@H](CC(C)C)[C@H](O)[C@H](CC1CCCCC1)NC(=O)[C@H](Cc1cscn1)NC(=O)C(Cc1ccccc1)CS(=O)(=O)c1ccccc1 (stereo partly drawn) |
| 9.32 | 7.80 | COCOCCS(=O)(=O)[C@H]1[C@H](C(=O)N[C@@H](Cc2cscn2)C(=O)N[C@@H](CC2CCCCC2)[C@@H](O)[C@@H](O)CC(C)C)[C@H]1c1ccccc1 |
| 8.15 | 7.07 | CC(C)C[C@H](O)[C@H](O)[C@H](CC1CCCCC1)NC(=O)[C@H](Cc1cscn1)NC(=O)[C@H]1[C@H](c2ccccc2)[C@@H]1S(=O)(=O)C(C)C |
|  | 9.06 | CC(C)C[C@H](O)[C@H](O)[C@H](CC1CCCCC1)NC(=O)[C@H](Cc1cscn1)NC(=O)[C@H](Cc1ccccc1)CS(=O)(=O)C(C)(C)C |
| 8.36 | 6.43 | CC(C)C[C@H](NC(=O)[C@H]1[C@H](c2ccccc2)[C@@H]1S(=O)(=O)C(C)C)C(=O)N[C@@H](CC1CCCCC1)[C@@H](O)[C@@H](O)CC(C)C |
| 7.64 |  | CC(C)C[C@H](O)[C@H](O)[C@H](CC1CCCCC1)NC(=O)[C@H](Cc1cscn1)NC(=O)[C@H]1[C@H](c2ccccc2)[C@@H]1S(C)(=O)=O |
| 9.15 | 7.70 | CC(C)C[C@H](O)[C@H](O)[C@H](CC1CCCCC1)NC(=O)[C@H](Cc1cscn1)NC(=O)[C@H]1[C@H](CC(=O)N2CCOCC2)[C@@H]1c1ccccc1 |
|  | 8.85 | CC(C)C[C@H](O)[C@H](O)[C@H](CC1CCCCC1)NC(=O)[C@H](Cc1cscn1)NC(=O)[C@H](Cc1ccccc1)CS(=O)(=O)N1CCOCC1 |
| 9.10 | 7.82 | CC(C)C[C@H](O)[C@H](O)[C@H](CC1CCCCC1)NC(=O)[C@H](Cc1cscn1)NC(=O)[C@@H]1[C@@H](C2CCCCC2)[C@H]1S(=O)(=O)C(C)C |
| 8.85 | 8.24 | CC(C)C[C@H](O)[C@H](O)[C@H](CC1CCCCC1)NC(=O)[C@H](Cn1ccnc1)NC(=O)[C@@H]1[C@@H](c2ccccc2)[C@H]1S(=O)(=O)C(C)C |
| 9.20 | 7.77 | C=CS(=O)(=O)[C@H]1[C@H](C(=O)N[C@@H](Cc2cscn2)C(=O)N[C@@H](CC2CCCCC2)[C@@H](O)[C@@H](O)CC(C)C)[C@H]1c1ccccc1 |
| 9.20 | 7.64 | CC(C)C[C@H](O)[C@H](O)[C@H](CC1CCCCC1)NC(=O)[C@H](Cc1cscn1)NC(=O)[C@@H]1[C@@H](c2ccccc2)[C@H]1S(C)(=O)=O |
| 9.42 | 8.10 | CC(C)C[C@H](O)[C@H](O)[C@H](CC1CCCCC1)NC(=O)[C@H](Cc1cscn1)NC(=O)[C@@H]1[C@@H](c2ccccc2)[C@H]1S(=O)(=O)C(C)C |
| 9.00 | 7.48 | COCOCCS(=O)(=O)[C@@H]1[C@@H](C(=O)N[C@@H](Cc2cscn2)C(=O)N[C@@H](CC2CCCCC2)[C@@H](O)[C@@H](O)CC(C)C)[C@@H]1c1ccccc1 |
| 9.23 | 7.85 | CC(C)C[C@H](NC(=O)[C@@H]1[C@@H](c2ccccc2)[C@H]1S(=O)(=O)C(C)C)C(=O)N[C@@H](CC1CCCCC1)[C@@H](O)[C@@H](O)CC(C)C |

— ChEMBL document CHEMBL1126210, “Conformationally restricted peptide isosteres. 2.1 Synthesis and in vitro potency of dipeptide renin inhibitors employing a 2-alkylsulfonyl-3-phenylcyclopropane carboxamide as a P3 amino acid replacement” (Bioorg Med Chem Lett, 1992)
